According to ChEMBL document CHEMBL1135320, “Novel phenolic antioxidants as multifunctional inhibitors of inducible VCAM-1 expression for use in atherosclerosis” (Bioorg Med Chem Lett, 2002):
The source made the active and inactive calls. The calls are words filed in the database; no cut-off is given here.

How the values were obtained:
Mus musculus = assay: Inhibition of progression of atherosclerosis in aorta after oral dosing in cholesterol fed LDL receptor knockout mice; type: functional
HASMC [1] = assay: Inhibition of proliferation of human aortic smooth muscle cells at a concentration of 5 uM; type: functional
[2] = Inhibitory effect in preventing the oxidation of linoleic acid by 15-lipoxygenase at a concentration of 70 uM; type: functional
[3] = Concentration required for 50% inhibition of TNF-alpha inducible Selectin E expression.
[4] = Concentration required for 50% inhibition of TNF-alpha inducible MCP-1 expression.
Oryctolagus cuniculus = assay: Inhibition of progression of atherosclerosis in aorta after oral dosing in cholesterol fed rabbits; type: functional
HASMC [5] = assay: Inhibition of proliferation of human aortic smooth muscle cells at a concentration of 5 uM; NE is no Effect; type: functional, cell-based

| Structure (SMILES) | Inhibition (Mus musculus) [%] | inhibition at 5 µM (HASMC [1]) [%] | inhibition [2] [%] | IC50 [3] [µM] | IC50 [4] [µM] | Inhibition (Oryctolagus cuniculus) [%] | inhibition (HASMC [5]) |
| --- | --- | --- | --- | --- | --- | --- | --- |
| CC(C)(Sc1cc(C(C)(C)C)c(O)c(C(C)(C)C)c1)Sc1cc(C(C)(C)C)c(OC(=O)CCC(=O)O)c(C(C)(C)C)c1 [SUCCINOBUCOL] | 43 | ~50 | 85 | 25 | 10 | 94 |  |
| CC(C)(Sc1cc(C(C)(C)C)c(OC(=O)CCC(=O)O)c(C(C)(C)C)c1)Sc1cc(C(C)(C)C)c(OC(=O)CCC(=O)O)c(C(C)(C)C)c1 |  |  | 85 |  |  |  |  |
| CC(C)(Sc1cc(C(C)(C)C)c(O)c(C(C)(C)C)c1)Sc1cc(C(C)(C)C)c(O)c(C(C)(C)C)c1 |  |  |  |  |  |  | inactive |
